Test results published in DBAASP.
Converted amounts (≈) assume the structure as drawn. “And” between values parts separate entries of the source, which are not always exact repeats. Identical values can stand only once. Values belong to the compound of their own block, whether it stands above or below them.

Legend:
Test in all cases: ≥ marks a high value that may be exact or a test limit, other limits are often not marked, values filed in µg/mL are converted to µM
[1] = test system: Staphylococcus aureus CCARM 3114
[2] = test system: Salmonella typhimurium KCTC 1926
[3] = test system: Staphylococcus aureus KCTC 1621
[4] = test system: Staphylococcus aureus CCARM 3108
[5] = test system: Pseudomonas aeruginosa KCTC 1637
[6] = test system: Escherichia coli KCTC 1682
[7] = test system: Staphylococcus aureus CCARM 3089
[8] = test system: Salmonella typhimurium CCARM 8003
[9] = test system: Staphylococcus epidermidis KCTC 1917
[10] = test system: Escherichia coli CCARM 1229
[11] = test system: Bacillus subtilis KCTC 3068
Aspergillus flavus = test system: Aspergillus flavus
Malassezia furfur = test system: Malassezia furfur
[12] = test system: Salmonella typhimurium CCARM 8007
Trichosporon beigelii = test system: Trichosporon beigelii
Candida albicans = test system: Candida albicans
[13] = test system: Staphylococcus aureus DBFIQ S21
[14] = test system: Listeria monocytogenes DBFIQ LM3
[15] = test system: Staphylococcus hominis M2973
[16] = test system: Pseudomonas aeruginosa M13513
[17] = test system: Enterococcus gallinarum M2723
Acinetobacter sp. M9013 = test system: Acinetobacter sp. M9013
[18] = test system: Enterococcus faecalis M4899
[19] = test system: Enterococcus gallinarum M2685
[20] = test system: Enterococcus faecium M2304
[21] = test system: Pseudomonas aeruginosa ATCC 27853
Staphylococcus cohnii = test system: Staphylococcus cohnii
[22] = test system: Enterococcus faecalis ATCC 29212
[23] = test system: Staphylococcus aureus ATCC 25923
[24] = test system: Klebsiella pneumoniae PFAV 3
[25] = test system: Staphylococcus aureus P33
[26] = test system: Escherichia coli ATCC 25922
[27] = test system: Enterococcus faecalis ATCC 51299
Acinetobacter sp. M13523 = test system: Acinetobacter sp. M13523
[28] = test system: Staphylococcus epidermidis M2921
[29] = test system: Staphylococcus haemolyticus M2976
Staphylococcus warneri = test system: Staphylococcus warneri
[30] = test system: Enterococcus faecium PZAP 95
Escherichia coli M9884 = test system: Escherichia coli M9884
Acinetobacter sp. M5949 = test system: Acinetobacter sp. M5949
[31] = test system: Pseudomonas aeruginosa M5470
[32] = test system: Enterococcus faecalis M6983
[33] = test system: Staphylococcus aureus P204
Acinetobacter sp. M9665 = test system: Acinetobacter sp. M9665
[34] = test system: Staphylococcus epidermidis M2923
[35] = test system: Staphylococcus hominis M2967
[36] = test system: Enterococcus faecalis M6534
[37] = test system: Pseudomonas aeruginosa PACO12
[38] = test system: Staphylococcus aureus M6276
[39] = test system: Staphylococcus saprophyticus M4070
[40] = test system: Klebsiella pneumoniae M9170

MIC [1]: 16 µM (≈ 18.2 µg/mL) | MIC [2]: 16 µM (≈ 18.2 µg/mL) | MIC [3]: 4 µM (≈ 4.56 µg/mL) | MIC [4]: 4 µM (≈ 4.56 µg/mL) | MIC [5]: 16 µM (≈ 18.2 µg/mL) | MIC [6]: 4 µM (≈ 4.56 µg/mL) | MIC [7]: 8 µM (≈ 9.12 µg/mL) | MIC [8]: ≥ 32 µM | MIC [9]: 2 µM (≈ 2.28 µg/mL) | MIC [10]: 8 µM (≈ 9.12 µg/mL) | MIC [11]: 4 µM (≈ 4.56 µg/mL)
SMILES: CC[C@H](C)[C@H](NC(=O)[C@H](C)NC(=O)[C@H](CC(C)C)NC(=O)[C@H](Cc1c[nH]c2ccccc12)NC(=O)[C@H](CC(C)C)NC(=O)[C@@H](N)CCCN=C(N)N)C(=O)NCC(=O)N[C@@H](CCCN=C(N)N)C(=O)N[C@@H](CCCN=C(N)N)C(N)=O [RLWLAIGRR]

MIC [1]: 8 µM (≈ 10.3 µg/mL) | MIC [2]: 2 µM (≈ 2.57 µg/mL) | MIC (Aspergillus flavus): 5 µM (≈ 6.42 µg/mL) | MIC [3]: 2 µM (≈ 2.57 µg/mL) | MIC [5]: 8 µM (≈ 10.3 µg/mL) | MIC (Malassezia furfur): 1.25 µM (≈ 1.6 µg/mL) | MIC [12]: 8 µM (≈ 10.3 µg/mL) | MIC [6]: 2 µM (≈ 2.57 µg/mL) | MIC (Trichosporon beigelii): 5 µM (≈ 6.42 µg/mL) | MIC [7]: 4 µM (≈ 5.13 µg/mL) | MIC [8]: 4 µM (≈ 5.13 µg/mL) | MIC [9]: 1 µM (≈ 1.28 µg/mL) | MIC [10]: 4 µM (≈ 5.13 µg/mL) | MIC [11]: 2 µM (≈ 2.57 µg/mL) | MIC (Candida albicans): 2.5 µM (≈ 3.21 µg/mL)
SMILES: CC(C)C[C@H](NC(=O)[C@H](Cc1c[nH]c2ccccc12)NC(=O)[C@H](CC(C)C)NC(=O)[C@@H](N)CCCN=C(N)N)C(=O)N[C@@H](C)C(=O)N[C@@H](Cc1c[nH]c2ccccc12)C(=O)N[C@@H](CCCCN)C(=O)N[C@@H](CCCN=C(N)N)C(=O)N[C@@H](CCCN=C(N)N)C(N)=O [RLWLAWKRR]

MIC [13]: ≥ 69.6 µM | MIC [14]: ≥ 69.6 µM
SMILES: CC[C@H](C)[C@H](NC(=O)[C@H](C)NC(=O)[C@@H](NC(=O)[C@H](C)NC(=O)CN)[C@@H](C)O)C(=O)N[C@@H](CCCCN)C(=O)N[C@@H](CCC(N)=O)C(=O)N[C@H](C(=O)N[C@@H](CCCCN)C(=O)N[C@@H](CCCCN)C(=O)N[C@@H](CC(C)C)C(=O)N[C@@H](Cc1c[nH]c2ccccc12)C(=O)N[C@@H](CCCCN)C(=O)N[C@@H](CCCCN)C(=O)N[C@@H](CCCCN)C(=O)NCC(=O)NCC(N)=O)C(C)C [GATAIKQVKKLWKKKGG]

MIC [15]: 1.37 µM (≈ 4 µg/mL) | MIC [16]: 11 µM (≈ 32 µg/mL) | MIC [17]: 11 µM (≈ 32 µg/mL) | MIC (Acinetobacter sp. M9013): 11 µM (≈ 32 µg/mL) | MIC [18]: ≥ 88 µM | MIC [19]: 5.5 µM (≈ 16 µg/mL) | MIC [20]: 5.5 µM (≈ 16 µg/mL) | MIC [21]: 22 µM (≈ 64 µg/mL) | MIC (Staphylococcus cohnii): 5.5 µM (≈ 16 µg/mL) | MIC [22]: 22 µM (≈ 64 µg/mL) | MIC [23]: 11 µM and 10.9 µM | MIC [24]: ≥ 352 µM | MIC [25]: 11 µM (≈ 32 µg/mL) | MIC [26]: 44 µM and 43.9 µM | MIC [27]: ≥ 88 µM | MIC (Acinetobacter sp. M13523): 22 µM (≈ 64 µg/mL) | MIC [28]: 2.75 µM (≈ 8 µg/mL) | MIC (Staphylococcus warneri): 2.75 µM (≈ 8 µg/mL) | MIC [30]: 11 µM (≈ 32 µg/mL) | MIC (Escherichia coli M9884): ≥ 44 µM | MIC (Acinetobacter sp. M5949): ≥ 88 µM | MIC [31]: ≥ 44 µM | MIC [32]: 22 µM (≈ 64 µg/mL) | MIC [33]: 22 µM (≈ 64 µg/mL) | MIC (Acinetobacter sp. M9665): ≥ 44 µM | MIC [34]: 5.5 µM (≈ 16 µg/mL) | MIC [35]: 2.75 µM (≈ 8 µg/mL) | MIC [36]: ≥ 44 µM | MIC [37]: 22 µM (≈ 64 µg/mL) | MIC [38]: 5.5 µM (≈ 16 µg/mL) | MIC [39]: 5.5 µM (≈ 16 µg/mL) | MIC [40]: ≥ 352 µM
SMILES: C[C@H](NC(=O)[C@H](CCCCN)NC(=O)[C@H](CCCCN)NC(=O)[C@H](CCCN=C(N)N)NC(=O)CNC(=O)[C@H](Cc1c[nH]c2ccccc12)NC(=O)[C@H](CCCN=C(N)N)NC(=O)[C@H](CCCN=C(N)N)NC(=O)[C@H](CCCCN)NC(=O)[C@H](Cc1c[nH]c2ccccc12)NC(=O)[C@H](CCCCN)NC(=O)[C@H](Cc1c[nH]c2ccccc12)NC(=O)[C@H](Cc1c[nH]c2ccccc12)NC(=O)[C@H](CCCCN)NC(=O)[C@@H]1CCCN1C(=O)[C@@H](N)Cc1c[nH]c2ccccc12)C(=O)N[C@@H](CCCCN)C(=O)N[C@@H](CCCCN)C(=O)N[C@@H](CCCN=C(N)N)C(=O)N[C@@H](CCCN=C(N)N)C(=O)NCC(N)=O [WPKWWKWKRRWGRKKAKKRRG]
MIC [29]: 5.5 µM (≈ 16 µg/mL)
